The results in this text go back to patent US20180042874A1, “METHOD FOR TREATING OSTEOPOROSIS” (China Medical University, priority 2016, published 2018).

The data set can be described thus: Body weight in ovariectomized osteoporosis rat model. It is filed as in vivo, Sprague-Dawley (SD) female rats. On the procedure:
Inducing osteoporosis animal models and experimental methods: • 1. 6-month old Sprague-Dawley (SD) female rats were purchased; • 2. These rats were divided into 7 groups, of which Group 1 was given pseudo-surgery, Group 2-7 underwent bilateral ovariectomies; • 3. On the 6th day after surgery, 1 mL/kg of vehicle alone was given orally to Group 1, Group 2 daily, Zoledronic Acid and Prolia were administered weekly by injections to Group 3, Group 4, respectively; 1, 3, 10 mg/kg of the compound of formula I was given orally every 3 days to Groups 5-7, respectively; • 4. Body weight and bone density were measured weekly, blood was drawn until the 118th day; • 5. Rats were then sacrificed to obtain kidneys, livers and rat tibia; • 6. Data were consolidated and processed.

On to `O=P(O)(O)C(O)(Cn1ccnc1)P(=O)(O)O` [Zoledronic acid], for which the “effect on body weight” value (ovariectomized rats) is listed as “decreased the body weight”. In the case of “Proliaor: commercially available drug, injected weekly as comparator in ovariectomized rats”, the “effect on body weight” value (rat, in vivo) is recorded as “increased the body weight”.
